Assay results: patent US10766862B2, “Crystal form and salt form of and preparation method for tyrosine kinase inhibitor” (GUANGDONG RAYNOVENT BIOTECH CO., LTD., priority 2016, dated 2020)
Values after ≈ are worked out from the molar mass of the structure shown.

How the values were obtained:
[1] = Test of solubility of crystal form A and its salts in four medias (HPLC, 24 hr); settings: for Solubility (ug/mL)_24 hr: 24 hr stirring; for pH (24 hr): supernatant
Description: (§1) Preparation of Control Solution (Crystal Form a as Control Sample)
(§2) Crystal form A was accurately weighed and added into a sample vial. 10 mL of acetonitrile was added, and subject to ultrasonic treatment for 5 min. The mixture was cooled to room temperature, and mixed homogeneously. Two aliquots were formulated in parallel, and labelled as STD-1 and STD-2, respectively.
Preparation of Linear Solution
(§3) The control solution STD-1 was gradually diluted 1×, 5×, 10×, 100×, and 1000×, and labelled as the linear solutions L1, L2, L3, L4, L5.
(§4) Test of Solubility of Crystal Form a and its Salts
(§5) The crystal form A and its salts were tested for their solubility in medias at 4 different pH values. About 10 mg of free base (10.8 mg of hydrochloride, 12.1 mg of methane sulfonate) was added into a glass vial. Four aliquots were weighed, 5.0 mL of individual media (water, SGF, FaSSIF, FeSSIF*) was added to each aliquot, respectively. The mixture was mixed homogeneously to for a suspension. A magnet was placed into the suspension, which was placed on a magnetic stirred for stirring. After 24 hours of stirred, a sample was taken and centrifugalized. The supernatant was detected by HPLC for its concentration and pH value.

[2] = Test of solid stability of crystal forms F, K and L; type: physicochemical
Description: Test of Solid Stability of Crystal Form F (Hydrochloride), Crystal Form K (Methane Sulfonate) and Crystal Form L (Methane Sulfonate) […] About 5 mg of each crystal form was accurately weighed and placed in a glass vial. Two aliquots were taken as the sample for test under each condition and at each time point. One aliquot was taken as the sample for XRPD test under each condition and at each time point. The vials containing sample were sealed with aluminum foil, and the foil was pierced to form some holes thereon. Then, the samples were placed in constant temperature & humidity chambers under the conditions of 60° C./92.5% RH and 40° C./75% RH. [table] 2. Analysis of Sample of Solid Stability At the tested time point, the sample was taken out, capped, and stood to room temperature. […] Diluent: an aqueous solution of methanol-0.04% TFA (90:10, v:v) Mobile phase A: 0.04% aqueous solution of TFA Mobile phase B: Acetonitrile as mobile phase B. Crystal form F (hydrochloride): To each sample was added 18 mL of the diluent (to the sample at Day 0 was added 20 mL of the diluent). The mixture was subject to ultrasonic treatment for 2 min, and mixed homogeneously for use as the sample solution. Crystal forms K and L (methane sulfonate): To each sample was added 15 mL of the diluent. The mixture was subject to ultrasonic treatment for 2 min, and mixed homogeneously for use as the sample solution. NOTE: All the sample solutions were injected for analysis immediately after formulation. Once the HPLC system was stable, the sample was injected for analysis.

physchem = settings: FeSSIF, pH 4.89, fessif, thermodynamic from solid
Description: as §1, §2
Preparation of Linear Solution
as §3, §4, §5

A549 Transplant Model = test: Analysis of tumor growth inhibition (TGI), A549 transplant model; type: in vivo; settings: mice, QD
Description: The development and growth of tumors are evaluated by the relation between the tumor volume and time. The long axis (L) and the short axis (W) are measured with caliper twice per week. The tumor volume (TV) is calculated in accordance with the formula of (L×W^2)/2. TGI is calculated from the difference between the median tumor volume of mice of the solvent group and the median tumor volume of mice of the administration group, and expressed as a percentage relative to the median tumor volume of the solvent group.
It is calculated from the equation of: % TGH(Median Tumor Volume (Control Group) Median Tumor Volume (Administration Group))/Median Tumor Volume (Control Group))×100%
The initial statistical analysis is carried out by repeated variance analyses. Next, multiple comparisons are made by Scheffe psot hoc test method. A solvent (aqueous solution containing 0.5% of methylcellulose and 0.2% Tween) alone is used as negative control.

[3] = 40° C./75% RH, Day 5, sum of impurities > 0.02%
[4] = 60° C., Day 5, sum of impurities > 0.02%
[5] = 92.5% RH, Day 5, sum of impurities > 0.02%
[6] = -20° C., Day 0 (control per se), Table 17
[7] = -20° C., Day 0, sum of impurities > 0.02%
[8] = FaSSIF (pH 6.48), listed as Hydrochloride Crystal form F
[9] = Water (pH 6.33), listed as Hydrochloride Crystal form F
[10] = FaSSIF (pH 6.48), listed as Methane sulfonate Crystal form K
[11] = Water (pH 6.33), listed as Methane sulfonate Crystal form K

## COc1cc2nccc(Oc3ccc(NC(=S)NC4CC4)c(Cl)c3F)c2cc1C(N)=O [Crystal form A]
[1]; FaSSIF (pH 6.48)
  Solubility (ug/mL)_24 hr: 2.62 µg/mL
  pH (24 hr): 6.18
[1]; SGF (pH 1.72), methane sulfonate loaded to 10 mg/mL of free base
  Solubility (ug/mL)_24 hr: 692.77 µg/mL
[1]; Water (pH 6.33)
  Solubility (ug/mL)_24 hr: 2.38 µg/mL
  pH (24 hr): 7.16
[1]; FeSSIF (pH 4.89)
  pH (24 hr): 4.98
[1]; SGF (pH 1.72)
  pH (24 hr): 1.97

## COc1cc2nccc(Oc3ccc(NC(=S)NC4CC4)c(Cl)c3F)c2cc1C(N)=O [Crystal form F]
[2]; 40° C./75% RH, Day 5, Table 17
  Content (%): 100.5%
[2]; [3]
  Total impurity (%): 4.94%
[2]; 60° C., Day 5, Table 17
  Content (%): 99.6%
[2]; [4]
  Total impurity (%): 4.86%
[2]; 92.5% RH, Day 5, Table 17
  Content (%): 100.3%
[2]; [5]
  Total impurity (%): 4.52%
[2]; [6]
  Content (%): 100.0%
[2]; [7]
  Total impurity (%): 4.66%
physchem
  solubility at 24 h: 70.1 µg/mL (≈ 152 µM)
[1]; [8]
  Solubility (ug/mL)_24 hr: 64.32 µg/mL
  pH (24 hr): 3.73
[1]; SGF (pH 1.72), methane sulfonate loaded to 10 mg/mL of free base, listed as Hydrochloride Crystal form F
  Solubility (ug/mL)_24 hr: 1217.07 µg/mL
[1]; [9]
  Solubility (ug/mL)_24 hr: 319.05 µg/mL
  pH (24 hr): 2.56
[1]; FeSSIF (pH 4.89), listed as Hydrochloride Crystal form F
  pH (24 hr): 4.89
[1]; SGF (pH 1.72), listed as Hydrochloride Crystal form F
  pH (24 hr): 1.80

## COc1cc2nccc(Oc3ccc(NC(=S)NC4CC4)c(Cl)c3F)c2cc1C(N)=O [Crystal form K]
[2]; 40° C./75% RH, Day 5, Table 17
  Content (%): 98.5%
[2]; [3]
  Total impurity (%): 5.32%
[2]; 40° C./75% RH, Day 10, Table 17
  Content (%): 101.7%
[2]; 40° C./75% RH, Day 10, sum of impurities > 0.02%
  Total impurity (%): 5.62%
[2]; 60° C., Day 5, Table 17
  Content (%): 94.6%
[2]; [4]
  Total impurity (%): 9.33%
[2]; 60° C., Day 10, Table 17
  Content (%): 93.9%
[2]; 60° C., Day 10, sum of impurities > 0.02%
  Total impurity (%): 8.94%
[2]; 92.5% RH, Day 5, Table 17
  Content (%): 99.3%
[2]; [5]
  Total impurity (%): 5.16%
[2]; 92.5% RH, Day 10, Table 17
  Content (%): 99.5%
[2]; 92.5% RH, Day 10, sum of impurities > 0.02%
  Total impurity (%): 4.87%
[2]; [6]
  Content (%): 100.0%
[2]; [7]
  Total impurity (%): 5.20%
[1]; [10]
  Solubility (ug/mL)_24 hr: 38.04 µg/mL
  pH (24 hr): 3.92
[1]; SGF (pH 1.72), methane sulfonate loaded to 10 mg/mL of free base, listed as Methane sulfonate Crystal form K
  Solubility (ug/mL)_24 hr: 6601.59 µg/mL
[1]; [11]
  Solubility (ug/mL)_24 hr: 329.78 µg/mL
  pH (24 hr): 2.53
[1]; FeSSIF (pH 4.89), listed as Methane sulfonate Crystal form K
  pH (24 hr): 4.88
[1]; SGF (pH 1.72), listed as Methane sulfonate Crystal form K
  pH (24 hr): 1.76

## COc1cc2nccc(Oc3ccc(NC(=S)NC4CC4)c(Cl)c3F)c2cc1C(N)=O [Crystal form L]
[2]; 40° C./75% RH, Day 30, Table 18
  Content (%): 99.4%
[2]; 40° C./75% RH, Day 30, sum of impurities > 0.05%
  Total impurity (%): 0.9%
[2]; 40° C./75% RH, Day 60, Table 18
  Content (%): 99.9%
[2]; 40° C./75% RH, Day 60, sum of impurities > 0.05%
  Total impurity (%): 0.9%
[2]; 40° C./75% RH, Day 90, Table 18
  Content (%): 97.5%
[2]; 40° C./75% RH, Day 90, sum of impurities > 0.05%
  Total impurity (%): 1.0%
[2]; 60° C., Day 5, Table 18
  Content (%): 97.8%
[2]; 60° C., Day 5, sum of impurities > 0.05%
  Total impurity (%): 0.8%
[2]; 60° C., Day 10, Table 18
  Content (%): 97.4%
[2]; 60° C., Day 10, sum of impurities > 0.05%
  Total impurity (%): 0.8%
[2]; 60° C., Day 30, Table 18
  Content (%): 97.1%
[2]; 60° C., Day 30, sum of impurities > 0.05%
  Total impurity (%): 0.8%
[2]; 92.5% RH, Day 5, Table 18
  Content (%): 98.0%
[2]; 92.5% RH, Day 5, sum of impurities > 0.05%
  Total impurity (%): 0.8%
[2]; 92.5% RH, Day 10, Table 18
  Content (%): 97.6%
[2]; 92.5% RH, Day 10, sum of impurities > 0.05%
  Total impurity (%): 0.8%
[2]; 92.5% RH, Day 30, Table 18
  Content (%): 100.2%
[2]; 92.5% RH, Day 30, sum of impurities > 0.05%
  Total impurity (%): 0.8%
[2]; -20° C., Day 0, Table 18
  Content (%): 97.5%
[2]; -20° C., Day 0, sum of impurities > 0.05%
  Total impurity (%): 0.8%
A549 Transplant Model; 50 mg/kg
  TGI % (Last Administration): 82%
A549 Transplant Model; 100 mg/kg
  TGI % (Last Administration): 90%
A549 Transplant Model; 200 mg/kg
  TGI % (Last Administration): 91%

## COc1cc2nccc(Oc3ccc(NC(=S)NC4CC4)c(Cl)c3F)c2cc1C(N)=O [methane sulfonate]
[1]; SGF, listed as methanesulfonate salt
  Solubility, conclusion in words: good solubility
